What all share (assay type): cell-based
The target in one test is hGLP-1R (Homo sapiens, UniProt P43220). Description: Functional cAMP formation (HTRF) in HEK-293 clonal cells expressing hGLP-1R, 0.1% bovine casein, without or with 1.0% human serum albumin. More on the design: expressed in transfected cells. The conditions noted are these: for Emax: read-out: hGLP-1R Emax, % ± SEM; for EC50: geometric mean, read-out: hGLP-1R EC50, nM (SEM, n). An outline of the steps:
(§1)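 Readings of the HTRF 665/620 nm ratio, which falls as cAMP rises, were converted to nM cAMP using a standard curve after 30 min peptide exposure at 37° C.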
A general note: Changes in cAMP serve as a functional read-out for many G protein-coupled receptors.

The target in a further test is T1, hGCGR (Homo sapiens, UniProt P47871).
T1 construct: expressed in transfected cells
Description: Functional cAMP formation (HTRF) in HEK-293 clonal cells expressing hGCGR, 0.1% bovine casein, without or with 1.0% human serum albumin. The conditions noted are these: geometric mean, read-out: hGCGR EC50, nM (SEM, n). An outline of the steps: as §1

A further test addresses T2, hGIPR (Homo sapiens, UniProt P48546).
T2 construct: expressed in transfected cells
T2 sequence (P48546 22-466): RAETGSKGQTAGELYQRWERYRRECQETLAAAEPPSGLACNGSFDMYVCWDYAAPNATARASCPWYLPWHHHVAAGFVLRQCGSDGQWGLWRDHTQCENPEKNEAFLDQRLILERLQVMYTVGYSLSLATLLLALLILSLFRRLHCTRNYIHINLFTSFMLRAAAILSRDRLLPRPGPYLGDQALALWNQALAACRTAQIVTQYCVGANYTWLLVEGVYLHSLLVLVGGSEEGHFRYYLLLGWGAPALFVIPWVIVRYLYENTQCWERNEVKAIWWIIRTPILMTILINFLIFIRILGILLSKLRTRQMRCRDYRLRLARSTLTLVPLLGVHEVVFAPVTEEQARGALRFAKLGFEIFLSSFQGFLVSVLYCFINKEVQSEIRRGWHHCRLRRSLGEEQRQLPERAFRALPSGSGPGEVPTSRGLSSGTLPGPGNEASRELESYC
Description: Functional cAMP formation (HTRF) in HEK-293 clonal cells expressing hGIPR, 0.1% bovine casein, without or with 1.0% human serum albumin. Conditions: for Emax: read-out: hGIPR Emax, % ± SEM; for EC50: geometric mean, read-out: hGIPR EC50, nM (SEM, n). An outline of the steps:
as §1

The mark [1] stands for this setting: HEK293, percent of maximal response to GLP-1(7-36)NH2, 37° C., 0.1% bovine casein, arithmetic mean.
Setting [2] is: cAMP, incubated at 37° C., 0.1% bovine casein (no human serum albumin).
Where [3] appears, read: HEK293, percent of maximal response to GIP(1-42)NH2, 37° C., 0.1% bovine casein, arithmetic mean.
The mark [4] stands for this setting: 0.1% bovine casein and 1.0% human serum albumin, 37° C.

Like-named read-outs stand apart in the source and are kept apart here. *1 amine or outer side, *2 acyl side, *3 side chain or, on linkers, in order; H or OH if unused. Where a SMILES comes first, the peptide text is derived from it. Side-chain parts run from the residue outwards. [ ]: non-standard residue; d: D form. The star is where a group is joined. αMePhe(2-F) = C[C@](N)(Cc1ccccc1F)C(=O)O; γGlu = O=C(O)[C@H](CCC(=O)[*:2])N[*:1]; C14 diacid = O=C(O)CCCCCCCCCCCCC(=O)*; αMeY = C[C@](N)(Cc1ccc(O)cc1)C(=O)O; 4Pal = N[C@@H](Cc1ccncc1)C(=O)O; αMeL = CC(C)C[C@](C)(N)C(=O)O; Orn = NCCC[C@H](N)C(=O)O; AEEA = NCCOCCOCC(=O)O; Aib = CC(C)(N)C(=O)O

hGLP-1R, sequence (P43220 24-463): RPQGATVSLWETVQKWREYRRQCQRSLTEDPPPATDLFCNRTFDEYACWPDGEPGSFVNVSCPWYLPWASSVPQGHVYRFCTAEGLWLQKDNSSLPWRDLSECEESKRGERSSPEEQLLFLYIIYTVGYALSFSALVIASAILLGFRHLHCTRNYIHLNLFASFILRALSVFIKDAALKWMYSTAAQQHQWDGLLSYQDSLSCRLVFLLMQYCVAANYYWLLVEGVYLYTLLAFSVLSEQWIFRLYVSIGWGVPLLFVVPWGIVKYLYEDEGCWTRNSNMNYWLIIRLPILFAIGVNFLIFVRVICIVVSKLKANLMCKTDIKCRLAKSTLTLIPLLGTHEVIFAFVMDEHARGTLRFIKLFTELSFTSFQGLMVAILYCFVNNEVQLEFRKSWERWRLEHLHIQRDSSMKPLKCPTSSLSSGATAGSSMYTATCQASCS
T1 sequence (P47871 26-477): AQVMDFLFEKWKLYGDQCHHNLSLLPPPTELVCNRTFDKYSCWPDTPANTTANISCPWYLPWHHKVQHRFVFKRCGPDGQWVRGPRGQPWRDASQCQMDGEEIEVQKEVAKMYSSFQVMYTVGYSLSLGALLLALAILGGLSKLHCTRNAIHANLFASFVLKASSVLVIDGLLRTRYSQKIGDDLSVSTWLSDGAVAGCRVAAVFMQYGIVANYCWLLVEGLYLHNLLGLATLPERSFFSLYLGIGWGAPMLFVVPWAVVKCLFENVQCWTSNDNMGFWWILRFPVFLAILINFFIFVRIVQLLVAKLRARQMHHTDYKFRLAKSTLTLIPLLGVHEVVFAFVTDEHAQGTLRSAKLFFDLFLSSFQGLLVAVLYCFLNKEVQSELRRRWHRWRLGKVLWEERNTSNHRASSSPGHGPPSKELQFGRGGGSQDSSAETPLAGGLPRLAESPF

With `CCCCCCCCCCCC(=O)N[C@@H](CCC(=O)NCCOCCOCC(=O)NCCOCCOCC(=O)NCCCC[C@H](NC(=O)CNC(=O)CNC(=O)[C@H](CCC(=O)O)NC(=O)[C@@H](NC(=O)[C@H](CC(C)C)NC(=O)[C@](C)(Cc1ccc(O)cc1)NC(=O)[C@@H](CCC(=O)O)NC(=O)[C@@H](NC(=O)[C@H](Cc1ccccc1)NC(=O)[C@H](CCC(=O)O)NC(=O)C(C)(C)NC(=O)[C@H](CCC(N)=O)NC(=O)[C@H](C)NC(=O)[C@H](CCCCNC(=O)COCCOCCNC(=O)COCCOCCNC(=O)CC[C@H](NC(=O)CCCCCCCCCCC)C(=O)O)NC(=O)[C@H](CCCN)NC(=O)[C@H](CC(=O)O)NC(=O)[C@H](CC(C)C)NC(=O)[C@](C)(CC(C)C)NC(=O)[C@@H](NC(=O)C(C)(C)NC(=O)[C@@H](NC(=O)[C@H](CC(=O)O)NC(=O)[C@H](CO)NC(=O)[C@@H](NC(=O)[C@](C)(Cc1ccccc1F)NC(=O)[C@@H](NC(=O)CNC(=O)[C@H](CCC(=O)O)NC(=O)C(C)(C)NC(=O)[C@@H](N)Cc1ccc(O)cc1)[C@@H](C)O)[C@@H](C)O)C(C)C)[C@@H](C)CC)[C@@H](C)CC)[C@@H](C)CC)C(=O)N[C@@H](CO)C(=O)N[C@@H](CO)C(=O)NCC(=O)N[C@@H](C)C(=O)N1CCC[C@H]1C(=O)N1CCC[C@H]1C(=O)N1CCC[C@H]1C(=O)N[C@@H](CO)C(N)=O)C(=O)O` [Example 175], the figures for the Emax on hGLP-1R (setting [1]) and on hGIPR (setting [3]) were 91.1% and 100%, respectively. Also, the EC50 (usually the concentration needed to bring the measured effect to its halfway point) is 0.227 nM on hGLP-1R (setting [2]) and above 9950 nM at hGCGR (setting [2]).
As for `CC[C@H](C)[C@H](NC(=O)[C@H](CC(C)C)NC(=O)[C@](C)(Cc1ccc(O)cc1)NC(=O)[C@H](CCCCNC(=O)COCCOCCNC(=O)COCCOCCNC(=O)CC[C@H](NC(=O)CCCCCCCCCCCCC(=O)O)C(=O)O)NC(=O)[C@@H](NC(=O)[C@H](Cc1ccccc1)NC(=O)[C@H](CCC(=O)O)NC(=O)C(C)(C)NC(=O)[C@H](CCC(N)=O)NC(=O)[C@H](C)NC(=O)[C@H](CCCCNC(=O)COCCOCCNC(=O)COCCOCCNC(=O)CC[C@H](NC(=O)CCCCCCCCCCCCC(=O)O)C(=O)O)NC(=O)[C@H](CCCN)NC(=O)[C@H](CC(=O)O)NC(=O)[C@H](CC(C)C)NC(=O)[C@](C)(CC(C)C)NC(=O)[C@@H](NC(=O)[C@H](CO)NC(=O)[C@H](Cc1ccncc1)NC(=O)[C@H](CC(=O)O)NC(=O)[C@H](CO)NC(=O)[C@@H](NC(=O)[C@](C)(Cc1ccccc1F)NC(=O)[C@@H](NC(=O)CNC(=O)[C@H](CCC(=O)O)NC(=O)C(C)(C)NC(=O)[C@@H](N)Cc1ccc(O)cc1)[C@@H](C)O)[C@@H](C)O)[C@@H](C)CC)[C@@H](C)CC)C(=O)N[C@@H](CCC(=O)O)C(=O)NCC(=O)N[C@@H](CCCN)C(N)=O` [Example 190] (H-Y[Aib]EGT[αMePhe(2-F)]TSD[4Pal]SI[αMeL]LD[Orn]K([AEEA-AEEA-γGlu-C14 diacid])AQ[Aib]EFIK([AEEA-AEEA-γGlu-C14 diacid])[αMeY]LIEG[Orn]-NH2; N-terminus assumed), the EC50 on hGLP-1R (setting [4]) was 28.9 nM; at hGLP-1R (setting [2]), 0.303 nM; at hGCGR (setting [4]), above 9950 nM; at hGCGR (setting [2]), above 9950 nM; on hGIPR (setting [4]), 1.55 nM; at hGIPR (setting [2]), 0.024 nM. For the same compound, the Emax – broadly, the size of the effect at its maximum, as opposed to the concentration needed – was found to be 112 ± 8.5% on hGLP-1R (HEK293, 0.1% bovine casein and 1.0% human serum albumin, 37° C., percent of maximal response to GLP-1(7-36)NH2); 98.9 ± 4.64% on hGLP-1R (setting [1]); 82.8 ± 3.36% on hGIPR (HEK293, 0.1% bovine casein and 1.0% human serum albumin, 37° C., percent of maximal response to GIP(1-42)NH2); 94.5 ± 0.611% at hGIPR (setting [3]).

For the origin of these results see US20230265151A1, “GIP/GLP1 CO-AGONIST COMPOUNDS” (priority 2020, published 2023).
